Test results from US20080261911A1, “Uses of diphenyl/diphenylamine carboxylic acids” (priority 2006, published 2008).

Assays:
[1] = test system: Sp1, Sp3, and Sp4 proteins; experiment: Western blot of Sp1, Sp3 and Sp4 protein expression in Panc-1 cells; type: cell-based; settings: for Sp1, Sp3, and Sp4 protein expression / order of potency for decreased expression of Sp1, Sp3, and Sp4 proteins: 50 μM; for Sp1, Sp3, and Sp4 protein expression: Western blot, vs DMSO
[2] = test system: VEGF promoter constructs pVEGF1 and pVEGF2; experiment: VEGF promoter (pVEGF1/pVEGF2) luciferase transactivation in Panc-1 cells; type: cell-based
Protocol: Transfection of Panc-1 cells with pVEGF1 and pVEGF2 and treatment with 50 μM ampiroxicam and tolfenamic acid (FIGS. 2A, 2B) or diclofenac sodium (FIGS. 2C, 2D) with pVEGF1 or pVEGF2 constructs. Cells were transfected with pVEGF1 or pVEGF2 treated with DMSO, 50 μM ampiroxicam, tolfenamic acid, or diclofenac sodium, and luciferase activity determined. Transfection of L3.6pl cells with pVEGF1 (FIG. 2E) or pVEGF2 constructs (FIG. 2F). […] Panc-1 cells were transfected with pVEGF2, treated with 20, 40, 60 or 80 μM ampiroxicam or tolfenamic acid, and luciferase determined. Results presented herein are means ±SE for three separate determinations per treatment group, and significant (p<0.05) decrease in luciferase activity is indicated by an asterisk.
Cells are cultured in 6-well plates in 2 ml of DME/F12 medium supplemented with 5% fetal bovine serum. After 16-20 hr when cells are 50-60% confluent, reporter gene constructs are transfected using LIPOFECTAMINE™ reagent (Invitrogen, Carlsbad, Calif.). The effects of the selective non-steroidal anti-inflammatory drugs on transactivation are investigated in Panc1 and L3.6pl cells co-transfected with different VEGF constructs (500 ng). […] For proteasome inhibitor experiments, cells will be co-treated with 2 μM lactacystin, and for electrophoretic mobility shift assay (EMSA), nuclear extracts from Panc1 and L3.6pl cells are isolated as described, and aliquots will be stored at −80° C. until used (Abdelrahim et al, 2004; Abdelrahim et al, 2005).
Previous studies have shown COX-2 inhibitors or small interfering RNAs for Sp proteins decreased vascular endothelial growth factor expression in colon and pancreatic cells (Abdelrahim et al, 2005; Baker et al, 2002; Masferrer et al, 2000; Bouwman et al, 2002). The effects of DMSO, 50 μM tolfenamic acid and 50 μM ampiroxicam on vascular endothelial growth factor expression were initially investigated in Panc-1 cells transfected with the pVEGF1 and pVEGF2 constructs, which contain −2018 to +50 and −131 to +54 VEGF promoter inserts, respectively (FIGS. 2A and 2B).

[3] = test system: cleaved poly (ADP-ribose) polymerase (PARP) protein; experiment: Apoptosis: cleaved PARP in Panc-1 cells, Western blot; type: cell-based; settings: 150 μM, 48 hr
Protocol: Cells are washed once with phosphate buffered saline PBS and collected by scraping in 200 μL of lysis buffer [50 mM HEPES, 0.5M sodium chloride, 1.5 mM magnesium chloride, 1 mM EGTA, 10% (v/v) glycerol, 1% Triton X-100, 5 μL/ml of Protease Inhibitor Cocktail (Sigma)]. The lysates from the cells are incubated on ice for 1 hr with intermittent vortexing followed by centrifugation at 40,000 g for 10 min at 4° C. Equal amounts of protein (60 μg) from each treatment group are diluted with loading buffer, boiled and loaded onto 10 and 12.5% SDS-polyacrylamide gel. […] Samples are electrophoresed, transferred to membranes, and proteins detected by incubation with polyclonal primary antibodies Sp1, Sp3, Sp4, HDAC, VEGF (a-20), c-Met, surviving, VEGF, cleaved PARP, and β-tubulin (H-235) followed by blotting with appropriate horseradish peroxidase-conjugated secondary antibody as previously described (Abdelrahim et al, 2004). After autoradiography, band intensities are determined by a scanning laser densitometer (Sharp Electronics Corporation, Mahwah, N.J.) using ZERO-D SCANALYTICS software (Scanalytics Corporation, Billerica, Mass.).

Panc-1 cells = experiment: Cell proliferation assay, Panc-1 cells; type: cell-based; settings: for growth of Panc-1 pancreatic cancer cells: different concentrations, 6 days, cell counting
Protocol: FIGS. 6A-6E show comparative effects of non-steroidal anti-inflammatory drugs on Panc-1 cell proliferation and Sp protein expression. Effects of tolfenamic acid (FIG. 6A), ampiroxicam (FIG. 6B), naproxen (FIG. 6C), and diclofenac sodium (FIG. 6D) on Panc-1 cell proliferation. Panc-1 cells were treated with different concentrations of non-steroidal anti-inflammatory drugs for 6 days, and the number of cells were determined on days 2, 4, and 6 by cell counting techniques. […] Panc-1 cells were treated with DMSO, 150 μM ampiroxicam, 150 μM naproxen, and 50 μM tolfenamic acid for 48 hr, and levels of Sp proteins and the cleaved poly (ADP-ribose) polymerase (PARP) protein were determined in whole cell lysates by Western blot analysis. […] Panc1, Panc28 and L3.6pl cells are seeded in DMEM/F12 media with 5% FBS and treated the next day with either vehicle (DMSO) or with the indicated compounds' concentrations. Cells are counted at the indicated times using a Z1™ COULTER COUNTER® cell counter. Each experiment is carried out in triplicate and results expressed as means ±SD for each determination.

[4] = test system: Sp1, Sp3 and Sp4 in colon cancer cells; settings: cited from earlier work
[5] = test system: orthotopically implanted human pancreatic L3.6p1 cancer cells; experiment: Orthotopic pancreatic tumor model in athymic nude mice; settings: gemcitabine 50 mg/kg
Protocol: Median tumor volumes (FIG. 8A) and weights (FIG. 8B) in athymic nude mice treated orthotopically with L3.6pl cells, and corn oil (control), tolfenamic acid (25 and 50 mg/kg), and gemcitabine (50 mg/kg) were determined. […] Tumors from the various treatment groups were analyzed for Sp1, Sp3, Sp4, and VEGF protein expression by Western blot analysis. […] Immunostaining is shown for VEGF (FIG. 8D), and CD31 (FIG. 8E). Pancreatic tumor sections from animals treated with solvent (control), gemcitabine (50 mg/kg) and tolfenamic acid (25 and 50 mg/kg) were immunostained with VEGF and CD31 antibodies.
Male athymic nude mice (NCI-nu) are purchased from the Animal Production Area of the National Cancer Institute Frederick Cancer Research and Development Center, housed and maintained under specific pathogen-free conditions in accordance with current regulations and standards of the United States Department of Agriculture. Injection of L3.6pl cells (with greater than 90% viability is performed as previously described (Bruns et al, 1999). Seven days after implantation of tumor cells into the pancreas of each mouse, five mice are killed to confirm the presence of tumor lesions.
Mice (10 animals per treatment group) are randomized to receive one of the following treatments: (1) thrice weekly oral administrations of vehicle solution which will serve as a control group; (2) thrice weekly oral administrations of at least three non-steroidal anti-inflammatory drugs at doses of 10, 25, and 50 mg/kg/day; (3) twice weekly intraperitoneal injections of 50, 75, and 100 mg/kg/day gemcitabine alone; and (4) combinations of gemcitabine and non-steroidal anti-inflammatory drugs. Mice are sacrificed on day 35 and body weights measured. Primary tumors in the pancreas are excised, measured, weighed. For immunohistochemistry (IHC) and hematoxylin and eosin (H&E) staining procedures, one part of the tumor tissue is fixed in formalin and embedded in paraffin, and another part is embedded in TISSUE-TEK® O.C.T. compound, rapidly frozen in liquid nitrogen, and stored at −70° C. Visible liver metastases are counted with the aid of a dissecting microscope, and the tissues processed for hematoxylin and eosin staining.
Paraffin-embedded tissues are used for identification of Sp proteins, VEGFR2p27 and vascular endothelial growth factor. Tissue sections ([…] thick) are mounted on positively charged SUPERFROST slides (Fischer Scientific, Co, Houston, Tex.) and dried overnight. Sections are deparaffinized in xylene and treated with a graded series of alcohol [100, 95, and 80% ethanol (v/v) in double distilled H2O] and rehydrated in phosphate buffered saline (pH 7.5). Tissues are treated with pepsin (Biomeda) for 15 min at 37° C. and washed with phosphate buffered saline. A positive reaction is visualized by incubating the slides with stable 3,3′-diaminobenzidine for 10-20 min. Sections are rinsed with distilled water, counterstained with Gill's hematoxylin for 1 min, and mounted with UNIVERSAL MOUNT (Research Genetics). […] Tumor sample lysates are also examined by western blot analysis for the same proteins.
The potential anti-tumorigenic and anti-angiogenic activity of tolfenamic acid against pancreatic tumors was investigated in an orthotopic athymic nude mouse model. L3.6pl cells were used for this study based on their aggressive growth and production of liver metastases (Bruns et al, 1999; Dubois et al, 1998).

[6] = bi-weekly intraperitoneal from day 7, sacrificed day 35

O=C(O)CCC(=O)c1ccc(-c2ccccc2)cc1 [fenbuten]
Sp1, Sp3, and Sp4 protein expression ([1]; 48 hr): had no effect

CC(=O)N[C@@H](CSC(=O)[C@]1([C@@H](O)C(C)C)NC(=O)[C@H](C)[C@@H]1O)C(=O)O [lactacystin]
effect on tolfenamic acid-induced Sp1, Sp3, and Sp4 protein degradation ([1]; 2 μM lactacystin plus 50 μM tolfenamic acid, 48 hr): significant inhibition of Sp1, Sp3, and Sp4 protein degradation
effect on tolfenamic acid-decreased transactivation of pVEGF2 ([2]; Panc-1 cells co-treated with tolfenamic acid and proteasome inhibitor): blocked in cells co-treated with lactacystin

CC(C)Cc1ccc(C(C)C(=O)O)cc1 (centres unmarked) [ibuprofen]
Sp1, Sp3, and Sp4 protein expression ([1]; 48 hr): had no effect

COc1ccc2cc([C@H](C)C(=O)O)ccc2c1 [naproxen]
poly (ADP-ribose) polymerase cleavage [3]: only tolfenamic acid induced protein degradation and poly (ADP-ribose) polymerase cleavage
Sp1, Sp3, and Sp4 protein expression ([1]; 48 hr): had no effect
Sp protein degradation ([1]; 150 μM, 48 hr (concentration of comparable growth inhibition)): only tolfenamic acid induced protein degradation
growth of Panc-1 pancreatic cancer cells (Panc-1 cells): decreased growth of Panc-1 pancreatic cancer cells

N#Cc1ccc(C(c2ccc(C#N)cc2)n2cncn2)cc1 [letrozole]
Sp1, Sp3, and Sp4 protein expression ([1]; 48 hr): had no effect

CS(=O)(=O)Nc1ccc([N+](=O)[O-])cc1Oc1ccccc1 [nimesulide]
levels of Sp1, Sp4 and Sp3 [4]: decreased levels of Sp1 and Sp4 (but not Sp3)

Nc1ccn([C@@H]2O[C@H](CO)[C@@H](O)C2(F)F)c(=O)n1 [gemcitabine, 2′, 2′-difluorodeoxycitidine]
immunostaining for vascular endothelial growth factor in tumor sections [5]: relatively greater staining
Body Weight Median [5, 6]: 24 g
Incidence Liver metastasis [5, 6]: did not affect the incidence of liver metastasis
Pancreatic Tumor Incidence (positive mice/mice injected) [5, 6]: 10/10
Tumor Volume Median [5, 6]: 1186.8 mm^3
Tumor Weight Median [5, 6]: 0.8 g
Incidence Liver metastasis ([5]; bi-weekly intraperitoneal from day 7, sacrificed day 35, listed as Gemcitabine): 5/10

O=C(O)Cc1ccccc1Nc1c(Cl)cccc1Cl [diclofenac sodium]
order of potency for decreased expression of Sp1, Sp3, and Sp4 proteins ([1]; 48 hr): tolfenamic acid>diclofenac˜diflunisal
Sp1, Sp3, and Sp4 protein expression ([1]; 48 hr): decreased expression of Sp1, Sp3, and Sp4 proteins
relative potency in Panc-1 growth inhibition (Panc-1 cells; compared with ampiroxicam and naproxen): exhibited higher potencies
growth of Panc-1 pancreatic cancer cells (Panc-1 cells): decreased growth of Panc-1 pancreatic cancer cells
luciferase activity, pVEGF1 and pVEGF2 constructs ([2]; Panc-1 cells, 50 μM): decreased transactivation

O=C(O)c1cc(-c2ccc(F)cc2F)ccc1O [diflunisal]
order of potency for decreased expression of Sp1, Sp3, and Sp4 proteins ([1]; 48 hr): tolfenamic acid>diclofenac˜diflunisal
Sp1, Sp3, and Sp4 protein expression ([1]; 48 hr): decreased expression of Sp1, Sp3, and Sp4 proteins

COc1ccc2c(c1)c(CC(=O)OCC(=O)O)c(C)n2C(=O)c1ccc(Cl)cc1 [acemetacin]
Sp1, Sp3, and Sp4 protein expression ([1]; 48 hr): had no effect

Cc1ccc(C(=O)c2ccc(CC(=O)O)n2C)cc1 [tolmetin]
Sp1, Sp3, and Sp4 protein expression ([1]; 48 hr): had no effect
